Experimental data published in patent US8008303B2, “Biphenyl derivatives and their use in treating hepatitis C” (AstraZeneca AB, priority 2005, dated 2011).
Read-outs that look alike come from different tables or passages of the source.

What was measured:
[1] = system: HCV replicon cells Huh 9B; experiment: HCV replicon assay (luciferase readout); type: cell-based
Protocol: (§1) HCV replicon cells Huh 9B (ReBlikon), containing the firefly luciferase-ubiquitin-neomycin phosphotransferase fusion protein and EMCV-IRES driven HCV polyprotein with cell culture adaptive mutations.
Cells were cultured at 37° C. in a 5% CO2 environment and split twice a week on seeding at 2×10^6 cells/flask on day 1 and 1×10^6 3 days later. G418 at 0.5 mg/ml was added to the culture medium but not the assay medium.
The culture medium consisted of DMEM with […] glucose and glutamax (Gibco 61965-026) supplemented with 1× non-essential amino acids (Invitrogen 11140-035), penicillin (100 IU/ml)/streptomycin (100 μg/ml) (Invitrogen 15140-122), FCS (10%, 50 ml) and 1 mg/ml G418 (Invitrogen 10131-027) & 10% Australian foetal calf serum (Invitrogen 10099-141).
A flask of cells was trypsinised and a cell count carried out. Cells were diluted to 100,000 cells/ml and 100 μl of this used to seed one opaque white 96-well plate (for the replicon assay) and one flat-bottomed clear plate (for the tox assay) for every seven compounds to be tested for IC50. Wells G12 and H12 were left empty in the clear plate as the blank. Plates were then incubated at 37° C. in a 5% CO2 environment for 24 h.
(§2) On the following day compound dilutions are made up in medium at twice their desired final concentration in a clear round bottomed plate. All dilutions have a final DMSO concentration of 1%.
Once the dilution plate had been made up, controls and compounds were transferred to the assay plate (containing the cells) at 100 μl /well in duplicate plates. Exception: no compound was added to wells A1 and A2 of either plate and 100 μl of 1% DMSO was added to these instead. Plates were then incubated at 37° C. with 5% CO2 for 72 h.
At the end of the incubation time, the cells in the white plate were harvested by washing 23.5 mM beetle luciferin (Promega E1603), 26 mM ATP (Sigma 0-2060) in […] Tris buffer pH 7.8 aliquoted and stored at −80 C was thawed and diluted 1:50 in luciferase assay buffer (20 mM Tricine (Sigma T-0377), 1.07 mM magnesium carbonate hydroxide (Sigma M-5671), 0.1 mM EDTA (Sigma E-5134), 2.67 mM MgSO4 (BDH 101514Y), 33.3 mM dithiothreitol (Sigma 150460) pH 7.8).
The M injector of the microplate luminometer (Lmax, Molecular Devices) was primed with 5×300 μl injections of the diluted substrate. After 5-60 min incubation in lysis buffer at room temperature, a plate was inserted into the luminometer and 100 μl luciferase assay reagent was added by the injector on the luminometer. The signal was measured using a 1 second delay followed by a 4 second measurement programme.

[2] = system: HCV replicon cells Huh 9B; type: cell-based
Protocol: as §1
A flask of cells was trypsinised and a cell count carried out. […] Wells G12 and H12 were left empty in the clear plate as the blank. Plates were then incubated at 37° C. in a 5% CO2 environment for 24 h.
as §2
Exception: no compound was added to wells A1 and A2 of either plate and 100 μl of 1% DMSO was added to these instead. Plates were then incubated at 37° C. with 5% CO2 for 72 h.
The clear plate was stained with 100 μl 0.5% methylene blue in 50% ethanol at room temperature for 1 h, followed by solvation of the absorbed methylene blue in 100 μl per well of 1% lauroylsarcosine. Absorbance of the plate was measured on a microplate spectrophotometer (Molecular Devices) and the absorbance for each concentration of compound expressed as a proportion of the relative DMSO control.

[3] = concentration reducing replicon level (luciferase activity) by 50% vs untreated cell control, 72 h incubation
[4] = concentration reducing total cell area by 50% relative to DMSO controls, methylene blue, absorbance 620 nm, 72 h incubation
[5] = Hepatitis C virus, 72 h, concentration reducing replicon level (luciferase activity) by 50% vs untreated cell control, 72 h incubation

Row | Compound | IC50 [1] [µM] | IC50 [1, 3] [µM] | TD50 [2] | TD50 [2, 4] | IC50 [1, 5] [µM]
1 | 6-Methoxy-biphenyl-3,4′-dicarboxylic acid 4′-{[4-(1,1-dioxo-1lambda*6*-thiomorpholin-4-ylmethyl)-phenyl]-amide} 4′{[4-(4-methanesulfonyl-piperazin-1-ylmethyl)-phenyl]-amide} [Example 262] | < 1 | – | – | – | –
2 | 6-Methyl-biphenyl-3,4′-dicarboxylic acid 4′-[(1H-indol-6-yl)-amide] 3-[(4-morpholin-4-yl-phenyl)-amide] [Example 44] | – | < 1 | – | – | –
3 | Cc1ccc(C(=O)Nc2ccc(N3CCOCC3)cc2)cc1-c1ccc(C(=O)Nc2cccc(Br)c2)cc1 [Example 1, 6-Methyl-biphenyl-3,4′-dicarboxylic acid 4′-[(3-bromo-phenyl)-amide] 3-[(4-morpholin-4-yl-phenyl)-amide]] | 1 to 5 | – | ** (key: * < 50 μM; ** > 50 μM) | – | –
4 | COc1ccc(NC(=O)c2ccc(-c3cc(C(=O)Nc4ccc(N5CCOCC5)cc4)ccc3C)cc2)cn1 [Example 2, 6-Methyl-biphenyl-3,4′-dicarboxylic acid 4′-[(6-methoxy-pyridin-3-yl)-amide] 3-[(4-morpholin-4-yl-phenyl)-amide]] | 1 to 5 | – | ** (key: * < 50 μM; ** > 50 μM) | – | –
5 | Cc1cccc(CNC(=O)c2ccc(-c3cc(C(=O)Nc4ccc(N5CCOCC5)cc4)ccc3C)cc2)c1 [Example 3, 6-Methyl-biphenyl-3,4′-dicarboxylic acid 4′-(3-methyl-benzylamide) 3-[(4-morpholin-4-yl-phenyl)-amide]] | 1 to 5 | – | ** (key: * < 50 μM; ** > 50 μM) | – | –
6 | Cc1ccc(C(=O)Nc2ccc(N3CCOCC3)cc2)cc1-c1ccc(C(=O)NCCC(C)C)cc1 [Example 4, 6-Methyl-biphenyl-3,4′-dicarboxylic acid 4′-[(3-methyl-butyl)-amide] 3-[(4-morpholin-4-yl-phenyl)-amide]] | 1 to 5 | – | ** (key: * < 50 μM; ** > 50 μM) | – | –
7 | Cc1ccc(C(=O)Nc2ccc(N3CCOCC3)cc2)cc1-c1ccc(C(=O)NCc2cccc(F)c2)cc1 [Example 5, 6-Methyl-biphenyl-3,4′-dicarboxylic acid 4′-(3-fluoro-benzylamide) 3-[(4-morpholin-4-yl-phenyl)-amide]] | 1 to 5 | – | ** (key: * < 50 μM; ** > 50 μM) | – | –
8 | Cc1ccc(C(=O)Nc2ccc(N3CCOCC3)cc2)cc1-c1ccc(C(=O)NCCN2CCCCC2)cc1 [Example 6, 6-Methyl-biphenyl-3,4′-dicarboxylic acid 3-[(4-morpholin-4-yl-phenyl)-amide] 4′-[(2-piperidin-1-yl-ethyl)-amide]] | 1 to 5 | – | * (key: * < 50 μM; ** > 50 μM) | – | –
9 | Cc1ccc(C(=O)Nc2ccc(N3CCOCC3)cc2)cc1-c1ccc(C(=O)Nc2ccc(Br)cc2)cc1 [Example 7, 6-Methyl-biphenyl-3,4′-dicarboxylic acid 4′-[(4-bromo-phenyl)-amide] 3-[(4-morpholin-4-yl-phenyl)-amide]] | 1 to 5 | – | * (key: * < 50 μM; ** > 50 μM) | – | –
10 | Cc1ccc(C(=O)Nc2ccc(N3CCOCC3)cc2)cc1-c1ccc(C(=O)Nc2cccc(OCc3ccccc3)c2)cc1 [Example 8, 6-Methyl-biphenyl-3,4′-dicarboxylic acid 4′-[(3-benzyloxy-phenyl)-amide] 3-[(4-morpholin-4-yl-phenyl)-amide]] | 1 to 5 | – | ** (key: * < 50 μM; ** > 50 μM) | – | –
11 | Cc1ccc(C(=O)NCCCN2CCN(C)CC2)cc1-c1ccc(C(=O)Nc2ccc(N3CCOCC3)cc2)cc1 [Example 9, 6-Methyl-biphenyl-3,4′-dicarboxylic acid 3-{[3-(4-methyl-piperazin-1-yl)-propyl]-amide} 4′-[(4-morpholin-4-yl-phenyl)-amide]] | > 5 | – | * (key: * < 50 μM; ** > 50 μM) | – | –
12 | Cc1ccc(C(=O)Nc2ccc(N3CCOCC3)cc2)cc1-c1ccc(C(=O)NCc2cccc(C(F)(F)F)c2)cc1 [Example 10, 6-Methyl-biphenyl-3,4′-dicarboxylic acid 3-[(4-morpholin-4-yl-phenyl)-amide] 4′-(3-trifluoromethyl-benzylamide)] | 1 to 5 | – | * (key: * < 50 μM; ** > 50 μM) | – | –
13 | Cc1ccc(C(=O)Nc2ccc(N3CCOCC3)cc2)cc1-c1ccc(C(=O)NCCc2cccs2)cc1 [Example 11, 6-Methyl-biphenyl-3,4′-dicarboxylic acid 3-[(4-morpholin-4-yl-phenyl)-amide] 4′-[(2-thiophen-2-yl-ethyl)-amide]] | 1 to 5 | – | ** (key: * < 50 μM; ** > 50 μM) | – | –
14 | Cc1ccc(C(=O)Nc2ccc(N3CCOCC3)cc2)cc1-c1ccc(C(=O)Nc2ccc3cn[nH]c3c2)cc1 [Example 12, 6-Methyl-biphenyl-3,4′-dicarboxylic acid 4′-[(1H-indazol-6-yl)-amide] 3-[(4-morpholin-4-yl-phenyl)-amide]] | 1 to 5 | – | ** (key: * < 50 μM; ** > 50 μM) | – | –
15 | Cc1ccc(C(=O)Nc2ccc(N3CCOCC3)cc2)cc1-c1ccc(C(=O)NCCc2cnc[nH]2)cc1 [Example 13, 6-Methyl-biphenyl-3,4′-dicarboxylic acid 4′-{[2-(3H -imidazol-4-yl)-ethyl]-amide} 3-[(4-morpholin-4-yl-phenyl)-amide]] | > 5 | – | * (key: * < 50 μM; ** > 50 μM) | – | –
16 | Cc1ccc(CNC(=O)c2ccc(-c3cc(C(=O)Nc4ccc(N5CCOCC5)cc4)ccc3C)cc2)o1 [Example 14, 6-Methyl-biphenyl-3,4′-dicarboxylic acid 4′-[(5-methyl-furan-2-ylmethyl)-amide] 3-[(4-morpholin-4-yl-phenyl)-amide]] | 1 to 5 | – | ** (key: * < 50 μM; ** > 50 μM) | – | –
17 | Cc1ccc(C(=O)Nc2ccc(N3CCOCC3)cc2)cc1-c1ccc(C(=O)N2CCCC2)cc1 [Example 15, 6-Methyl-4′-(pyrrolidine-1-carbonyl)-biphenyl-3-carboxylic acid (4-morpholin-4-yl-phenyl)-amide] | – | – | – | * (* < 50 μM) | > 5
18 | Cc1ccc(C(=O)Nc2ccc(N3CCOCC3)cc2)cc1-c1ccc(C(=O)Nc2ccc3c(c2)OCO3)cc1 [Example 16, 6-Methyl-biphenyl-3,4′-dicarboxylic acid 4′-benzo[1,3]dioxol-5-ylamide 3-[(4-morpholin-4-yl-phenyl)-amide]] | 1 to 5 | – | ** (key: * < 50 μM; ** > 50 μM) | – | –
19 | Cc1ccc(C(=O)NC2CC2)cc1-c1ccc(C(=O)Nc2ccc(N3CCOCC3)cc2)cc1 [Example 17, 6-Methyl-biphenyl-3,4′-dicarboxylic acid 3-cyclopropylamide 4′-[(4-morpholin-4-yl-phenyl)-amide]] | 1 to 5 | – | * (key: * < 50 μM; ** > 50 μM) | – | –
20 | Cc1ccc(NC(=O)c2ccco2)cc1-c1ccc(C(=O)Nc2ccc(N3CCOCC3)cc2)cc1 [Example 18, Furan-2-carboxylic acid [6-methyl-4′-(4-morpholin-4-yl-phenylcarbamoyl)-biphenyl-3-yl]-amide] | – | – | – | * (* < 50 μM) | 1 to 5
21 | Cc1ccc(C(=O)Nc2ccc(N3CCOCC3)cc2)cc1-c1ccc(C(=O)Nc2cccc(C(=O)c3ccccc3)c2)cc1 [Example 19, 6-Methyl-biphenyl-3,4′-dicarboxylic acid 4′-[(3-benzoyl-phenyl)-amide] 3-[(4-morpholin-4-yl-phenyl)-amide]] | – | 1 to 5 | – | ** (** > 50 μM) | –
22 | Cc1ccc(CNc2ccc3cn[nH]c3c2)cc1-c1ccc(C(=O)Nc2ccc(CN3CCS(=O)(=O)CC3)cc2)cc1 [Example 201, 5′-[(1H-Indazol-6-ylamino)-methyl]-2′-methyl-biphenyl-4-carboxylic acid [4-(1,1-dioxo-1lambda*6*-thiomorpholin-4-ylmethyl)-phenyl]-amide] | – | – | – | * (* < 50 μM) | –
